# Assays:
# [1] = biological target: T1, Jak2 (Homo sapiens, UniProt O60674); assay: Jak2 (PSTATS UT7) alpha screen assay: inhibition of EPO induced phosphorylation of STAT5 in UT7 cells; assay type: cell-based; details: calculated from tabulated EC50 data (Jak2 / Tyk2)
# T1 construct: Cell Type: UT7 cells engineered to express the erythropoietin (EPO) receptor; endogenous in cells; host or cells: UT7 cells engineered to express the EPO receptor
# Experimental: 3. JAK2 (PSTATS UT7) ALPHA SCREEN ASSAY
# Erythropoietin (EPO) is known to transduce its signal through EPO receptor via Jak2. Activity against Jak2 was therefore measured by determining inhibition of EPO induced phosphorylation of STATS in UT7 cells. […] Materials
# Cell Type: UT7 cells engineered to express the erythropoietin (EPO) receptor; Culture Medium: Dulbecco's Modified Eagle Medium (DMEM) with 2 mM L-glutamine, 10 mM hydroxyethyl piperazineethanesulfonic acid (HEPES), 10% heat-inactivated fetal bovine serum (FBS) and Stock EPO (5000U in 250 uL, need 5U/mL, so add 250 μL to 1L of media); Assay Medium: 5% FBS ultra-low IgG and 1% Pen/Strep. Compounds were made-up in 100% dimethyl sulfoxide (DMSO).
# Day One - Starve Cells: 4 Flasks for one 384 plate (spin down @1000 rpm for 10 minutes and add DMEM with no EPO).
# (§1) Day Two—Compound Dilutions:
# i. Manual 8-point 1:3 dilution curve: 5 mM top concentration dispensed in row A of a
# Corning 96-well polypropylene plate, columns 2-12. DMSO dispensed in position A01 for low and high controls. Compounds were serially diluted 1:3 by adding 10 μL stock to 20 μL DMSO down the plate.
# ii. Media dilution of compounds: Serially diluted compounds were diluted 1:50 in assay medium by adding 4 μL compound to 196 μL assay medium in a Corning 96-well polypropylene plate.
# 384 Alpha Screen Plate Set up: Transferred 2.5 μL/well of compound solution from last dilution plate. Replicates were vertical, so that one column of the 96-well dilution plate goes into one column on the 384-well plate twice. Plated 1×10^5 starved cells/well in 5μL. Washed cells in 10 mL Hank's balanced salt solution (HBSS) after spinning down. Counted live cells. Multiplied by dilution factor and 10,000 (constant) to get the concentration of viable cells. Multiplied by volume of cells to get the total number of live cells. Divided by 20,000,000 cells/mL to get the volume needed. Subtracted the original volume to get the volume to be added to get the final concentration of cells. Mixed in reservoir if needed, ensuring that all cell clumps are broken up (if not broken up, they were removed from the suspension). Cells were plated at 5 μL/well in gray Alpha Screen 384-well plate. Spinned the plate to bring the contents to the bottom of the wells at 400 rpm for 2 minutes. Top final compound concentration: 25 μM. Sealed with adhesive and tapped gently. Incubated cells at 37° C. for 30 minutes.
# c. EPO Stimulation (p STATS)
# Once cells were in incubator, immediately prepared working stock of EPO (1 nM final assay concentration). EPO stock=2860 nM of sterile filtered liquid in sodium citrate buffer (1 liter of ddH2O containing 5.9 g of sodium citrate, 5.8 g of sodium chloride and 0.06 g of citric acid). Diluted 1:22.72 by adding 4.44 stock EPO to 95.6 pi assay media, then dilute again […] depending on how much volume is needed for the assay plates. Used assay medium to bring to volume. Added 2.5 μL EPO to each well. Spinned plate at 400 rpm briefly; tap the plate gently before covering with an adhesive seal. Cells were incubated at 37° C. for 20 minutes.
# Added 2.5 μL of 5X Lysis buffer to each well. Spinned plate at 400 rpm briefly. Incubated at room temperature (on orbital shaker) for 10 minutes.
# e. Protein (A) Acceptor Beads Preparation: (Light sensitive)
# (§2) Phosphorylated Signal Transducer and Activator of Transcription 5 (pSTAT5) was quantified using the PerkinElmer SureFire pSTATS (Tyrosine 694/699) Assay. Calculated total volume needed (wells×15 μL×30%). Divided total volume by 5 to get volume of activation buffer. Subtracted volume of activation buffer from total volume and divide by 40 to get volume of acceptor beads (add last). Total volume - acceptor bead volume - activation buffer to get volume of reaction buffer. Added 15 μL to each well and covered with foil. Shaked on orbital shaker for 2 hours at 500 rpm.
# (§3) f. Streptavidin Donor Beads Preparation:
# Calculated total volume needed (wells×6μL×30%). […]
# [2] = biological target: T2, Jak1 (Homo sapiens, UniProt P23458); assay: Jak1 (PSTAT3 TF1) alpha screen assay: inhibition of IL-6 induced phosphorylation of STAT3 in TF1 cells; assay type: cell-based; details: calculated from tabulated EC50 data (Jak1 / Tyk2)
# T2 construct: endogenous in cells; host or cells: TF1 cells
# Experimental: 2. JAK1 (PSTAT3 TF1) ALPHA SCREEN ASSAY
# IL-6 is known to transduce its signal through IL-6 receptor via Jak1. Activity against Jak1 was therefore measured by determining inhibition of IL-6 induced phosphorylation of STAT3 in TF1 cells.
# Cell Type: TF1 Cells; Culture Medium: RPMI 1640 Medium, 2mM L-glutamine, 10% heat- inactivated fetal bovine serum (FBS), 10 mM hydroxyethyl piperazineethanesulfonic acid (HEPES), and 2 ng/mL recombinant human interleukin-6(IL-6); Assay Medium: Dulbecco's Modified Eagle Medium (DMEM) medium with 2 mM L-glutamine, 10 mM HEPES, 100 U/mL penicillin/streptomycin, 1.5 g/L sodium bicarbonate, 4.5 g/L glucose, 1 mM sodium pyruvate, 10% heat-inactivated FBS; Compound Preparation: Compounds are dissolved in 100% dimethyl sulfoxide (DMSO).
# Day One—Starve Cells: 4 Flasks for one 384 plate (spin down @1000 rpm for 10 minutes and add RPMI 1640 Medium, 2 mM L-glutamine, 10% FBS, 10 mM HEPES with no IL-6 -incubate overnight).
# as §1
# i. Manual 8-point 1:5 dilution curve: 5 mM top concentration dispensed in row A of a
# Corning 96-well polypropylene plate, columns 2-12. DMSO dispensed in position A01 for low and high controls. Compounds were serially diluted 1:5 by adding 10 μL stock to […] DMSO down the plate.
# ii. Media dilution of compounds: Serially diluted compounds were further diluted 1:12.5 in assay medium by adding 4 μL compound to 46 μL assay medium in a Corning 96-well polypropylene plate.
# 384 Alpha Screen Plate Set up: Transfer 2.5 μL/well of compound solution from assay media dilution plate. Replicates were vertical, one column of the 96-well dilution plate goes into one column on the 384-well plate twice. Plated 1×10^5 starved cells/well in 5 μL. Washed cells in 10 mL DMEM medium after spinning down. Brought cell pellet up in assay media. Counted live cells. Multiplied by dilution factor and 10,000 (constant) to get the concentration of viable cells. Multiplied by volume of assay media used to bring up cells to get the total number of live cells. Divided by 20,000,000 cells/mL to get the volume needed. Cells were plated at 5 μL/well in gray Alpha Screen 384-well plate. Spinned the plate to bring the contents to the bottom of the wells at 300 rpm for 60 seconds. Top final compound concentration: 25 μM. Sealed with adhesive and tapped gently. Incubated plate at 37° C. for 30 minutes. c. IL-6 Stimulation (pSTAT3)
# Once cells were in incubator, immediately prepared working stock of IL-6 (100 ng/mL final concentration). IL-6 stock=10 μg/mL of IL-6 in phosphate buffered saline with 0.1% bovine serum albumin. Diluted 1:25 by adding 60 μL stock IL-6 to 1440 μL assay media. Added 2.5 μL IL-6 to each well. Spinned plate at 300 rpm briefly; tapped the plate gently before covering with an adhesive seal. Incubated plate at 37° C. for 30 minutes.
# Added 2.5 μL of 5X Lysis buffer to each well. Incubated at room temperature on orbital shaker for 10 minutes.
# e. Protein (A) Acceptor Beads Preparation:
# as §2, with “3 (pSTAT3)” for “5 (pSTAT5)”, “pSTAT3” for “pSTATS”, “705)” for “694/699)”, “(wells×[…]×25%).” for “(wells×15 μL×30%).”, “volume−acceptor” for “volume - acceptor”, “volume−activation buffer=volume” for “volume - activation buffer to get volume”
# as §3
# Calculated total volume needed (wells×[…]×25%). Divided total volume by 20 to get volume of donor beads (add last). Subtracted volume of donor beads from total volume to get volume of dilution buffer. Added 6 μL to each well and covered with foil. Shaked on orbital shaker overnight at 500 rpm.
# Read plate on a Perkin Elmer Envision. […]
# T2 sequence (P23458 whole entry): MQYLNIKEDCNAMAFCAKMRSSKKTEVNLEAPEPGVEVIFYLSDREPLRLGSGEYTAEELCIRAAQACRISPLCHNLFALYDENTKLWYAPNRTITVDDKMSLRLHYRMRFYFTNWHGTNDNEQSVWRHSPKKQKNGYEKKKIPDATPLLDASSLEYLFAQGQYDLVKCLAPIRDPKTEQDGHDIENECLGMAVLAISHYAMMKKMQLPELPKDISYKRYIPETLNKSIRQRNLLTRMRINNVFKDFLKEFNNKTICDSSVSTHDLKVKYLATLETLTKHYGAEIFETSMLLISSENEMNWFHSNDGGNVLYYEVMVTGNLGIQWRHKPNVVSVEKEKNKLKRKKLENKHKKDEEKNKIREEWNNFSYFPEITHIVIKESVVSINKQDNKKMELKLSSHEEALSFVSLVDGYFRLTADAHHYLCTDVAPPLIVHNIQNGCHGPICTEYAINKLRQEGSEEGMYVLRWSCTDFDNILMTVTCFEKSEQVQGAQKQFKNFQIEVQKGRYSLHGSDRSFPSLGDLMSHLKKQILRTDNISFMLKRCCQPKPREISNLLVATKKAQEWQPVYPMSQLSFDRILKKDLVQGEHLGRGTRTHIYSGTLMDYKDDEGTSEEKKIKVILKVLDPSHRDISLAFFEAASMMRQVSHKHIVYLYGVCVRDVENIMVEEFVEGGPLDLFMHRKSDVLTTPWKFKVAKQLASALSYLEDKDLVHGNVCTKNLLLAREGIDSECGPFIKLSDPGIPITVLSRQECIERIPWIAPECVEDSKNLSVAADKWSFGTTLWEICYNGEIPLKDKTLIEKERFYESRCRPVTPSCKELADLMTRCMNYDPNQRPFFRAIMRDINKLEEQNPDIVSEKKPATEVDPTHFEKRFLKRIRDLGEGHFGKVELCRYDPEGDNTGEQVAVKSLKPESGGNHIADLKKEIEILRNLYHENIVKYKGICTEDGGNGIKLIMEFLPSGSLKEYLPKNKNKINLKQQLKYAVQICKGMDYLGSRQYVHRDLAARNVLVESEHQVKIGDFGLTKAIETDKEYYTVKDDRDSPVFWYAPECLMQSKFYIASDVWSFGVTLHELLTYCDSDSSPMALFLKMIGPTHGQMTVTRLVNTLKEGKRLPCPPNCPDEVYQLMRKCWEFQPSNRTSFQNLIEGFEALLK
# T1 sequence (O60674 whole entry): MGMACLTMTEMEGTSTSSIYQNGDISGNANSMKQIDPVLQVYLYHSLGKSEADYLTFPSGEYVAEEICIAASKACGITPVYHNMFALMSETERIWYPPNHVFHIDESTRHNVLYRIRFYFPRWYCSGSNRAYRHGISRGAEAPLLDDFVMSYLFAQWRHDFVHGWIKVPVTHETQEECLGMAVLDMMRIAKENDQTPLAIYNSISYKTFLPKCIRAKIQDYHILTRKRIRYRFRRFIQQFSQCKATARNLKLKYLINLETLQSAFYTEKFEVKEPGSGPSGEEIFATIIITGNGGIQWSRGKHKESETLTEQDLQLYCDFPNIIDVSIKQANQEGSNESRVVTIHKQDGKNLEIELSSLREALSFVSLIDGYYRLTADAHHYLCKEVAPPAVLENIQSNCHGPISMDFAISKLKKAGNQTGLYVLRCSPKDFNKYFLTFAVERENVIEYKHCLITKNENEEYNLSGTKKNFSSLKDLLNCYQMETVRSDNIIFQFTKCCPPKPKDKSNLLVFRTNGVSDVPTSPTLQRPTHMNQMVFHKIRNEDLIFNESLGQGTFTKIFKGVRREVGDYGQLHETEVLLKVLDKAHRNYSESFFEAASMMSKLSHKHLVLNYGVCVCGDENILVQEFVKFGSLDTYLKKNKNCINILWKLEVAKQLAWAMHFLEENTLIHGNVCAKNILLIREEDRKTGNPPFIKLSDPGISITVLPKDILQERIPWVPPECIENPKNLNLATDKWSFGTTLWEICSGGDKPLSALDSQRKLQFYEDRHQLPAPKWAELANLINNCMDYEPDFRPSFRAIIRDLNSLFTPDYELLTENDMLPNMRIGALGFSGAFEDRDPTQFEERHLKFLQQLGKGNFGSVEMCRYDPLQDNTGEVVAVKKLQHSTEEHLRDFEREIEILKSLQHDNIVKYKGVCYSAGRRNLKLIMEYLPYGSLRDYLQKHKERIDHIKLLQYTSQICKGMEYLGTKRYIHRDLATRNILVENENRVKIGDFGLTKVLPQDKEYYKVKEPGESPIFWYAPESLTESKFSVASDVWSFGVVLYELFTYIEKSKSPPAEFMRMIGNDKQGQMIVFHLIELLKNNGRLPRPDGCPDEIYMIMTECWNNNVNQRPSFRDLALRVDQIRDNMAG
Tyk2 selectivity over Jak2 [1],Tyk2 selectivity over Jak1 [2],Compound
>595-fold,405-fold,"CO[C@@]1(c2cc(C(F)F)cc(-c3cn(C)c4cnc(NC(C)=O)cc34)n2)CCOC1 [Example 2.8, (R)-N-(3-(4-(difluoromethyl)-6-(3-methoxytetrahydrofuran-3-yl)pyridin-2-yl)-1-methyl-1H-pyrrolo[2,3-c]pyridin-5-yl)acetamide]"
>136-fold,103-fold,"COCCOc1cc(-c2cn(C)c3cnc(NC(C)=O)cc23)nc([C@]2(CO)CCOC2)c1 [Example 22.8, (S)-N-(3-(6-(3-(hydroxymethyl)tetrahydrofuran-3-yl)-4-(2-methoxyethoxy)pyridin-2-yl)-1-methyl-1H-pyrrolo[2,3-c]pyridin-5-yl)acetamide]"
>347-fold,98-fold,"CC(=O)Nc1cc2c(-c3cc(C(F)F)cc([C@]4(CO)CCOC4)n3)cn(C)c2cn1 [Example 22.5, (S)-N-(3-(4-(difluoromethyl)-6-(3-(hydroxymethyl)tetrahydrofuran-3-yl)pyridin-2-yl)-1-methyl-1H-pyrrolo[2,3-c]pyridin-5-yl)acetamide]"
>192-fold,85-fold,"COc1cc(-c2cn(C)c3cnc(NC(C)=O)cc23)nc([C@]2(CO)CCOC2)c1 [Example 22.6, (S)-N-(3-(6-(3-(hydroxymethyl)tetrahydrofuran-3-yl)-4-methoxypyridin-2-yl)-1-methyl-1H-pyrrolo[2,3-c]pyridin-5-yl)acetamide]"
>1786-fold,243-fold,"CC[C@@]1(c2cccc(-c3cn(C)c4cnc(NC(N)=O)cc34)n2)CCOC1 [Example 3.2, (S)-1-(3-(6-(3-ethyltetrahydrofuran-3-yl)pyridin-2-yl)-1-methyl-1H-pyrrolo[2,3-c]pyridin-5-yl)urea]"
>806-fold,871-fold,"CO[C@@]1(c2cccc(-c3cn([C@H]4C[C@H](C#N)C4)c4cnc(NC(C)=O)cc34)n2)CCOC1 [Example 17, N-(1-((trans)-3-Cyanocyclobutyl)-3-(6-((R)-3-methoxytetrahydrofuran-3-yl)pyridin-2-yl)-1H-pyrrolo[2,3-c]pyridin-5-yl)acetamide]"
>21-fold,–,"COCc1cc(-c2cn(C)c3cnc(NC(C)=O)cc23)nc([C@@]2(CO)CCOC2)c1 [Example 22a, (R)-N-(3-(6-(3-(hydroxymethyl)tetrahydrofuran-3-yl)-4-(methoxymethyl)pyridin-2-yl)-1-methyl-1H-pyrrolo[2,3-c]pyridin-5-yl)acetamide]"
–,889-fold,"CO[C@@]1(c2cc(C(F)F)cc(-c3cn(C4COC4)c4cnc(NC(N)=O)cc34)n2)CCOC1 [Example 12b.4, (R)-1-(3-(4-(difluoromethyl)-6-(3-methoxytetrahydrofuran-3-yl)pyridin-2-yl)-1-(oxetan-3-yl)-1H-pyrrolo[2,3-c]pyridin-5-yl)urea]"
–,10-fold,"CO[C@]1(c2cc(C)cc(-c3cn(C)c4cnc(NC(N)=O)cc34)n2)CCOC1 [Example 1b.3, (S)-1-(3-(6-(3-methoxytetrahydrofuran-3-yl)-4-methylpyridin-2-yl)-1-methyl-1H-pyrrolo[2,3-c]pyridin-5-yl)urea]"
–,328-fold,"COc1cc(-c2cn(C)c3cnc(NC(C)=O)cc23)nc([C@]2(OC)CCOC2)c1 [Example 20, (R)-N-(3-(4-Methoxy-6-(3-methoxytetrahydrofuran-3-yl)pyridin-2-yl)-1-methyl-1H-pyrrolo[2,3-c]pyridin-5-yl)acetamide]"
–,188-fold,"CC[C@@]1(c2cccc(-c3cn(C)c4cnc(NC(C)=O)cc34)n2)CCOC1 [Example 2.3, (S)-N-(3-(6-(3-ethyltetrahydrofuran-3-yl)pyridin-2-yl)-1-methyl-1H-pyrrolo[2,3-c]pyridin-5-yl)acetamide]"
–,20-fold,"Cn1cc(-c2cccc(C3(O)COC3)n2)c2cc(NC(N)=O)ncc21 [Example 14, 1-(3-(6-(3-hydroxyoxetan-3-yl)pyridin-2-yl)-1-methyl-1H-pyrrolo[2,3-c]pyridin-5-yl)urea]"
–,81-fold,"COc1cc(-c2cn(C)c3cnc(NC(N)=O)cc23)nc([C@@]2(OC)CCOC2)c1 [Example 12.7, (S)-1-(3-(4-methoxy-6-(3-methoxytetrahydrofuran-3-yl)pyridin-2-yl)-1-methyl-1H-pyrrolo[2,3-c]pyridin-5-yl)urea]"
